Test results taken from US4231928A, “Antibacterial agents” (priority 1979, dated 1980).
Like-named read-outs stand apart in the source and are kept apart here.

Key:
[1] = system: S. aureus; experiment: Serial twofold agar dilution (Mueller-Hinton agar), S. aureus; type: cell-based; conditions: Staphylococcus aureus
Procedure: (§1) The Minimum Inhibitory Concentrations (MIC) for sodium 6-[D-(-)-α-phenyl-α-(7-hydroxy-4-oxo-4H-pyrimido[1,2-b]pyridazin-3-ylcarboxamido)acetamido]penicillanate (BB-P598) and sulbenicillin were determined by the serial twofold agar dilution method using Steers' apparatus on Mueller-Hinton agar plates against 31 test organisms for the primary screening (Table 1) and also against 61 strains of Pseudomonas aeruginosa for the secondary evaluation (Table 2).
(§2) Minimum Inhibitory Concentrations (MIC) for sodium 6-[D-(-)-α-phenyl-α-(7-hydroxy-4-oxo-4H-pyrimido[1,2-b]pyridazin-3-ylcarboxamido)acetamido]pencillanate (BB-P598), sodium 6-[D-(-)-α-(4-hydroxyphenyl)-α-(7-hydroxy-4-oxo-4H-pyrimido[1,2-b]pyridazin-3-ylcarboxamido)acetamido]-penicillanate (BB-P642) and carbenicillin were determined by the serial twofold agar dilution method using Steers' apparatus on Mueller-Hinton agar plates against 31 tests organisms (Table 8) and also against 61 strains of Pseudomonas aeruginosa (Table 9). In terms of mean % relative activity compared with carbenicillin, compounds BB-B598 and BB-P642 were 856% and 1319% as active as carbenicillin against the 61 Pseudomonas strains of Table 9.

[2] = Mouse blood levels after subcutaneous administration; conditions: in vivo, sc, 20 mg/kg
Procedure: Mouse blood levels of BB-[…] and BB-[…] were determined by subcutaneous administration of 20 mg/kg of the penicillin to groups of three mice. Blood samples collected from orbital sinuses were assayed by the paper disk agar-diffusion method on Sarcina lutea PC1 1001 plates.

[3] = system: P. mirabilis; experiment: Serial twofold agar dilution (Mueller-Hinton agar), P. mirabilis; type: cell-based; conditions: Proteus mirabilis
Procedure: as §1, §2

[4] = system: E. coli; experiment: Serial twofold agar dilution (Mueller-Hinton agar), E. coli; type: cell-based; conditions: Escherichia coli
Procedure: as §1, §2

[5] = system: Klebsiella sp.; experiment: Serial twofold agar dilution (Mueller-Hinton agar), Klebsiella sp.; type: cell-based; conditions: Klebsiella sp. A20452, Mueller-Hinton agar, Table 8, read-out: MIC
Procedure: as §1, §2

[6] = system: E. cloacae; experiment: Serial twofold agar dilution (Mueller-Hinton agar), E. cloacae; type: cell-based; conditions: Enterobacter cloacae
Procedure: as §1, §2

[7] = system: K. pneumoniae; experiment: Serial twofold agar dilution (Mueller-Hinton agar), K. pneumoniae; type: cell-based; conditions: Klebsiella pneumoniae, K. pneumoniae A9977, Table 8, read-out: MIC
Procedure: as §1, §2

[8] = system: S. marcescens; experiment: Serial twofold agar dilution (Mueller-Hinton agar), S. marcescens; type: cell-based; conditions: Serratia marcescens, S. marcescens A20019, Table 8
Procedure: as §1, §2

[9] = system: Pseudomonas aeruginosa; experiment: Serial twofold agar dilution (Mueller-Hinton agar), P. aeruginosa; type: cell-based; conditions: for MIC: Pseudomonas aeruginosa
Procedure: as §1, §2

[10] = system: P. vulgaris; experiment: Serial twofold agar dilution (Mueller-Hinton agar), P. vulgaris; type: cell-based; conditions: Proteus vulgaris, P. vulgaris A9539, Table 8, read-out: MIC
Procedure: as §1, §2

[11] = system: Pseudomonas sp.; experiment: Serial twofold agar dilution (Mueller-Hinton agar), Pseudomonas sp.; type: cell-based; conditions: Pseudomonas sp. A20358, Table 8, read-out: MIC
Procedure: as §1, §2

[12] = system: P. morganii; experiment: Serial twofold agar dilution (Mueller-Hinton agar), P. morganii; type: cell-based; conditions: Morganella morganii, P. morganii A9553, Table 8, read-out: MIC
Procedure: as §1, §2

[13] = system: S. enteritidis; experiment: Serial twofold agar dilution (Mueller-Hinton agar), S. enteritidis; type: cell-based; conditions: Salmonella enterica, S. enteritidis A9531, Table 8, read-out: MIC
Procedure: as §1, §2

CC1(C)S[C@@H]2[C@H](NC(=O)[C@H](NC(=O)c3cnc4ccc(O)nn4c3=O)c3ccc(O)cc3)C(=O)N2[C@H]1C(=O)O [BB-P642, Sodium 6-[D-(-)-α-(4-hydroxyphenyl)-α-(7-hydroxy-4-oxo-4H-pyrimido[1,2-b]pyridazin-3-ylcarboxamido)acetamido]-penicillanate]
3.1 µg/mL: MIC ([1]; S. aureus Smith A9537, Table 8, read-out: MIC) | MIC [3] | MIC ([4]; E. coli A9844, Table 8, read-out: MIC) | MIC ([4]; E. coli NIHJ, Table 8, read-out: MIC) | MIC ([9]; GN4925, Pa-45 GN 4925, Mueller-Hinton agar, Table 9, read-out: MIC) | MIC ([9]; P. aeruginosa A20717, Mueller-Hinton agar, Table 8, read-out: MIC) | MIC ([9]; Pa-4 H9, D113 A21295, Mueller-Hinton agar, Table 9, read-out: MIC) | MIC ([9]; Pa-17 H6, D114, Mueller-Hinton agar, Table 9, read-out: MIC) | MIC ([9]; Pa-52 A9926, Mueller-Hinton agar, Table 9, read-out: MIC) | MIC ([9]; Pa-54 A20128, Mueller-Hinton agar, Table 9, read-out: MIC) | MIC ([9]; Pa-55 A20227, Mueller-Hinton agar, Table 9, read-out: MIC) | MIC ([9]; Pa-58 A20557, Mueller-Hinton agar, Table 9, read-out: MIC) | MIC ([9]; Pa-61 A20726, Mueller-Hinton agar, Table 9, read-out: MIC) | MIC ([9]; Pa-66 A21434, Mueller-Hinton agar, Table 9, read-out: MIC) | MIC ([9]; Pa-67 A21509, Mueller-Hinton agar, Table 9, read-out: MIC) | MIC ([9]; Pa-68 A21510, Mueller-Hinton agar, Table 9, read-out: MIC) | MIC ([9]; Pa-69 A21587, Mueller-Hinton agar, Table 9, read-out: MIC) | MIC [13]
1.6 µg/mL: MIC ([4]; E. coli A20664, Table 8, read-out: MIC) | MIC ([9]; ATCC19660, Pa-14 ATCC 19660 A20325, Mueller-Hinton agar, Table 9, read-out: MIC) | MIC ([9]; P. aeruginosa A9843, Mueller-Hinton agar, Table 8, read-out: MIC) | MIC ([9]; P. aeruginosa A9930, Mueller-Hinton agar, Table 8, read-out: MIC) | MIC ([9]; Pa-2 V.A A9923, Mueller-Hinton agar, Table 9, read-out: MIC) | MIC ([9]; Pa-3 1449 V.A A9930, Mueller-Hinton agar, Table 9, read-out: MIC) | MIC ([9]; Pa-5 M4865, K.C A15150, Mueller-Hinton agar, Table 9, read-out: MIC) | MIC ([9]; Pa-11 A20616, Mueller-Hinton agar, Table 9, read-out: MIC) | MIC ([9]; Pa-12 A20653, Mueller-Hinton agar, Table 9, read-out: MIC) | MIC ([9]; Pa-20 A20325, Mueller-Hinton agar, Table 9, read-out: MIC) | MIC ([9]; Pa-21 A20601, Mueller-Hinton agar, Table 9, read-out: MIC) | MIC ([9]; Pa-23 A20741, Mueller-Hinton agar, Table 9, read-out: MIC) | MIC ([9]; Pa-25 A20897, Mueller-Hinton agar, Table 9, read-out: MIC) | MIC ([9]; Pa-28 C.P.H. 10527/72, Mueller-Hinton agar, Table 9, read-out: MIC) | MIC ([9]; Pa-29 D122, Mueller-Hinton agar, Table 9, read-out: MIC) | MIC ([9]; Pa-30 A20600, Mueller-Hinton agar, Table 9, read-out: MIC) | MIC ([9]; Pa-32 A20595, Mueller-Hinton agar, Table 9, read-out: MIC) | MIC ([9]; Pa-37 A20130, Mueller-Hinton agar, Table 9, read-out: MIC) | MIC ([9]; Pa-41 A21227, Mueller-Hinton agar, Table 9, read-out: MIC) | MIC ([9]; Pa-43 A21233, Mueller-Hinton agar, Table 9, read-out: MIC) | MIC ([9]; Pa-44 A21274, Mueller-Hinton agar, Table 9, read-out: MIC) | MIC ([9]; Pa-51 A9910, Mueller-Hinton agar, Table 9, read-out: MIC) | MIC ([9]; Pa-53 A20126, Mueller-Hinton agar, Table 9, read-out: MIC) | MIC ([9]; Pa-56 A20228, Mueller-Hinton agar, Table 9, read-out: MIC) | MIC ([9]; Pa-57 A20546, Mueller-Hinton agar, Table 9, read-out: MIC) | MIC ([9]; Pa-60 A20602, Mueller-Hinton agar, Table 9, read-out: MIC) | MIC ([9]; Pa-65 A21428, Mueller-Hinton agar, Table 9, read-out: MIC) | MIC ([9]; Pa-70 K-PS102 (KR-102), Mueller-Hinton agar, Table 9, read-out: MIC)
2.27 µg/mL: MIC ([9]; 61 strains of P. aeruginosa, Table 9, read-out: Geometric mean of MIC)
0.4 µg/mL: MIC ([9]; A20229, Mueller-Hinton agar, Table 8, read-out: MIC) | MIC ([9]; Pa-16 #130 A20718, Mueller-Hinton agar, Table 9, read-out: MIC) | MIC ([9]; Pa-18 H8, D121, Mueller-Hinton agar, Table 9, read-out: MIC) | MIC ([9]; Pa-31 A20594, Mueller-Hinton agar, Table 9, read-out: MIC) | MIC [11]
100 µg/mL: MIC ([4]; E. coli A20732, Table 8, read-out: MIC) | MIC ([6]; E. cloacae A9657, Table 8)
12.5 µg/mL: MIC ([1]; S. aureus A20240, Table 8, read-out: MIC) | MIC ([4]; E. coli A9635, Table 8, read-out: MIC) | MIC [5] | MIC ([9]; Pa-6 No. 5 Levitan A15194, Mueller-Hinton agar, Table 9, read-out: MIC) | MIC ([9]; Pa-26 PS32, Mueller-Hinton agar, Table 9, read-out: MIC) | MIC ([9]; Pa-42 A21229, Mueller-Hinton agar, Table 9, read-out: MIC)
5200 ng/mL: concentration at 1 h [2]
13500 ng/mL: concentration at 0.5 h [2]
18000 ng/mL: concentration at 0.25 h [2]
25 µg/mL: MIC ([1]; S. aureus A20239, Table 8, read-out: MIC) | MIC ([1]; S. aureus BX-1633 A9606, Table 8, read-out: MIC) | MIC ([6]; E. cloacae A9656, Table 8) | MIC ([6]; E. cloacae A9659, Table 8)
1319%: Mean % relative activity compared with carbenicillin ([9]; 61 strains of P. aeruginosa, Table 9)
50 µg/mL: MIC [10]
> 100 µg/mL: MIC ([1]; S. aureus A15097, Table 8, read-out: MIC) | MIC ([1]; S. aureus A20701, Table 8, read-out: MIC) | MIC ([4]; E. coli A20366, Table 8, read-out: MIC) | MIC ([4]; E. coli A20898, Table 8, read-out: MIC) | MIC [8] | MIC ([9]; Pa-10 A21479, Mueller-Hinton agar, Table 9, read-out: MIC) | MIC ([9]; Pa-24 A20896, Mueller-Hinton agar, Table 9, read-out: MIC) | MIC ([9]; Pa-62 A21213, Mueller-Hinton agar, Table 9, read-out: MIC) | MIC [12]
6.3 µg/mL: MIC ([4]; E. coli A20520, Table 8, read-out: MIC) | MIC ([4]; E. coli Juhl A15119, Table 8, read-out: MIC) | MIC [7] | MIC ([9]; Pa-15 A20717, Mueller-Hinton agar, Table 9, read-out: MIC) | MIC ([9]; Pa-38 A20349, Mueller-Hinton agar, Table 9, read-out: MIC)
0.8 µg/mL: MIC ([9]; GN315, Pa-27 GN315 A21294, Mueller-Hinton agar, Table 9, read-out: MIC) | MIC ([9]; P. aeruginosa A15150, Mueller-Hinton agar, Table 8, read-out: MIC) | MIC ([9]; Pa-19 A20229, Mueller-Hinton agar, Table 9, read-out: MIC) | MIC ([9]; Pa-33 A20598, Mueller-Hinton agar, Table 9, read-out: MIC) | MIC ([9]; Pa-34 A20603, Mueller-Hinton agar, Table 9, read-out: MIC) | MIC ([9]; Pa-36, Mueller-Hinton agar, Table 9, read-out: MIC) | MIC ([9]; Pa-39 A20641, Mueller-Hinton agar, Table 9, read-out: MIC) | MIC ([9]; Pa-59 A20574, Mueller-Hinton agar, Table 9, read-out: MIC) | MIC ([9]; Pa-64 A21336, Mueller-Hinton agar, Table 9, read-out: MIC)
